Measurements taken from patent publication US9439874B2, “Food composition for nourishing, maintaining and cultivating a variety of stem cells and a method for manufacturing the same” (THE WRITER OF RESVERATROL BIOTECH R&D CO., LTD., priority 2012, dated 2016).

How the values were obtained:
[1] = test system: rat mesenchymal stem cells; conditions: cited from earlier work
[2] = cited from earlier work
Lewis lung carcinoma = conditions: mouse, in vivo; cited from earlier work
[3] = test system: human gastric cancer BGC823 cells; conditions: cited from earlier work
L-8 = conditions: mouse, in vivo; cited from earlier work
cancer stem cells = conditions: cited from earlier work
[4] = test system: human lung adenocarcinoma A549 cells; conditions: 20 μM, EGF-induced; cited from earlier work
[5] = test system: human laryngeal cancer Hep-2 cell; conditions: cited from earlier work
[6] = test system: malignant glioma cell line U87 and cancer stem cells (CSCs); conditions: cited from earlier work
Lymphoma Raji cells = conditions: in vitro; cited from earlier work
MDA-MB-231 cell = conditions: combination with TRAIL; cited from earlier work
[7] = test system: nematodes, drosophila, African Carp and mouse; conditions: cited from earlier work
[8] = isomerization under irradiation of UV analyzer; assay type: physicochemical; conditions: UV analyzer 136 μw/cm^2, embedded vs unembedded
Description: 2. Solutions to the problem of cis & trans structures and transformation of resveratrol. Trans-resveratrol is very instable and will transform into cis-resveratrol under the UV irradiation. After its aqueous solution (pH1-7) kept in dark place for 28 day, 4.7% of the trans-resveratrol will transform into cis-resveratrol. Low water solubility and poor stability under UV irradiation restrict the all-purpose application. Therefore, HP-β-CD is used to embed the resveratrol into inclusion compound. […] Moreover, the food formula packaged by capsule solves the problems of oxidization misgivings and stability.

[9] = test system: human telomerase reverse transcriptase (hTERT); conditions: dose- and time-dependent; cited from earlier work
[10] = test system: cervical cancer Hela cells; conditions: cited from earlier work
esophageal cancer cell = conditions: cited from earlier work

For `O=c1c(O)c(-c2ccc(O)c(O)c2)oc2cc(O)cc(O)c12` [quercetin], the “proliferation and differentiation of mesenchymal stem cells of bone marrow” value [1] is listed as “promote” and the “expression of BMP2 mRNA” value ([1]; differentiation of mesenchymal stem cells) is listed as “increase”.

For `Oc1ccc(C=Cc2cc(O)cc(O)c2)cc1` [resveratrol], the “solubility in organic solvents” value ([2]; ethyl ether, chloroform, methanol, ethanol, acetone, acetic ether) is given as “soluble”, the solubility in water ([2]; water) is given as “hardly soluble (slightly soluble)” and the “growth of Lewis lung carcinoma in mice” value (Lewis lung carcinoma) is given as “inhibiting the growth”. For the same compound, the “proliferation of BGC823 cells” value [3] was “inhibit”, the “telomerase activity in BGC823” value ([3]; with the extension of the time) was “declined” and the “tumor-bearing mice L-8 generation” value (L-8) was “inhibit”. For the same compound, the “cancer stem cells survival” value (cancer stem cells; high concentration of resveratrol with radiotherapy) was “one-third”, the enhancement of radiotherapy (cancer stem cells; high concentration of resveratrol, mice bearing tumor) was 30%-50% and the “A549 cells' invasion” value [4] was “inhibit”. The Hep-2 cell proliferation [5] was “suppress”, the “apoptosis of U87 and cancer stem cells” value [6] was “induce” and the “IL-8 mRNA expression of lymphoma Raji cells” value (Lymphoma Raji cells) was “inhibit”. For the same compound, the “proliferation of lymphoma Raji cells” value (Lymphoma Raji cells) was “inhibit”, the TRAIL-induced cell apoptosis (MDA-MB-231 cell) was “enhanced” and the prolongation of life [7] was 30-75%. For the same compound, the “isomerization under UV irradiation” value [8] was “quickens up isomerization”, the “expression of hTERT mRNA and protein” value [9] was “down-regulated” and the “in vitro growth of cervical cancer Hela cells” value [10] was “obvious inhibition effects”. The “esophageal cancer cell apoptosis” value (esophageal cancer cell) was “induce”.
